For one data set, the target named is IRF4. To be noted: ASO.
A further data set deals with HSD17B13. To be noted: ASO, HepaRG.

After the bases stand the sugars from the 5' end (letter, count) and the backbone: PS all phosphorothioate, else s phosphorothioate and o phosphodiester by linkage. Methylation of C is not given here. e = 2'-O-(2-methoxyethyl) (MOE); k = constrained ethyl (cEt); d = 2'-deoxy (DNA); m = 2'-O-methyl

Take AAAAGCCCAAAATAGG (sugars k3 d10 k3, PS): the target mRNA inhibition with IRF4 (SK-MEL-28, 4 µM) is -12%. For AAAAGGTTCCTGTCAC (sugars k3 d10 k3, PS), the target mRNA inhibition in the data set with IRF4 (MM.1R, 1 µM) was -5%. As for AAACACCCCTTCTTGT (sugars k3 d10 k3, PS), the target mRNA inhibition with IRF4 (SK-MEL-28, 4 µM) was -13%. Same read-out and setting: the same measure for AAACAGAGACGCGGTG (sugars k3 d10 k3, PS): 18%. AAACCAGTACAGTCCA (sugars k3 d10 k3, PS): the target mRNA inhibition with IRF4 (MM.1R, 1 µM) is -23%.

In the case of AAACGAGAACGCACGG (sugars k3 d10 k3, PS), the target mRNA inhibition with IRF4 (MM.1R, 1 µM) worked out at 9%. With AAACGAGTTGACACAG (sugars k3 d10 k3, PS), the target mRNA inhibition with IRF4 (SK-MEL-28, 4 µM) came out at 20%. Still for that read-out and setting: next, AAACGCAGAGCCAGTA (sugars k3 d10 k3, PS): 37%. On the same count and under the same terms, next, AAACTATAATTGGCAC (sugars k3 d10 k3, PS): 30%. Turning to AAAGAAACGAGTTGAC (sugars k3 d10 k3, PS), in the data set with IRF4 (MM.1R, 1 µM), the target mRNA inhibition came out at 14%. As to AAAGACCCCAGCTATG (sugars k3 d10 k3, PS), the target mRNA inhibition with IRF4 (SK-MEL-28, 4 µM) was 23%. For AAAGGGTAAGCACTGA (sugars k3 d10 k3, PS), the target mRNA inhibition with IRF4 (MM.1R, 1 µM) came out at 19%.

On to AAATAAGATCCCACGA (sugars k3 d10 k3, PS), for which the target mRNA inhibition with IRF4 (MM.1R, 1 µM) is -7%.

On to AAATCACTTGTCTTGG (sugars k3 d10 k3, PS), for which the target mRNA inhibition with IRF4 (SK-MEL-28, 4 µM) is 49%. Same read-out and setting: the same measure for AACAAAAGGTTCCCGC (sugars k3 d10 k3, PS): 40%; for AACAAATTAAAGAGCG (sugars k3 d10 k3, PS): 23%. As to TTACATTACAGCCTTA (sugars k3 d10 k3, PS), the target mRNA inhibition amounted to 0% with HSD17B13 (0.02 µM); 0% with HSD17B13 (0.078 µM); 19% with HSD17B13 (0.313 µM); 67% in the data set with HSD17B13 (1 µM); 56% in the data set with HSD17B13 (1.25 µM); 80% with HSD17B13 (5 µM).

In the case of TTAGAGAGCGATAGAT (sugars k3 d10 k3, PS), the target mRNA inhibition in the data set with HSD17B13 (1 µM) worked out at 23%. On to “TTAGTATAGTTATCTT (sugars k3 d9 k3 e1, PS)”, for which, in the data set with HSD17B13 (1 µM), the target mRNA inhibition stood at 45%. On the same count and under the same terms, next, TTAGTATAGTTATCTT (sugars k3 d10 k3, PS): 37%; “TTAGUTAGAATAGTCT (sugars k3 d1 m1 d8 k3, PS)”: 35%. Still for that read-out and setting: next, “TTATAACTACAAGAGG (sugars k3 d1 m1 d8 k3, PS)”: 58%; TTATCATACCACATAC (sugars k3 d10 k3, PS): 19%; TTATGATAATTTGGTG (sugars k3 d10 k3, PS): 0%. As to “TTATGTAATAGCCAGT (sugars k3 d1 m1 d8 k3, PS)”, the target mRNA inhibition with HSD17B13 (1 µM) stood at 56%. The same measure, in the same setting: next, “TTATGTAATAGCCAGT (sugars kkdddddddddkekek, PS)”: 63%. Still for that read-out and setting: the same measure for “TTATGTGATTGAGTTC (sugars k3 d1 m1 d8 k3, PS)”: 35%. Take TTATTGTAGGGATTGA (sugars k3 d10 k3, PS): in the data set with HSD17B13 (1 µM), the target mRNA inhibition was 63%. Still for that read-out and setting: the same measure for TTCAACTAAACATGAC (sugars k3 d10 k3, PS): 55%. The same measure, in the same setting: next, TTCACCAACGACTCCA (sugars k3 d10 k3, PS): 62%. Consider TTCAGTTAGCAGCTAA (sugars k3 d10 k3, PS), for which the target mRNA inhibition with HSD17B13 (0.02 µM) was 0%; with HSD17B13 (0.078 µM), 0%; in the data set with HSD17B13 (0.313 µM), 26%; with HSD17B13 (1 µM), 72%; with HSD17B13 (1.25 µM) it was 63%; in the data set with HSD17B13 (5 µM) it was 82%. Regarding TTCATAAGTAGTCTGC (sugars k3 d10 k3, PS), the target mRNA inhibition with HSD17B13 (1 µM) was 64%. In the case of TTCATAGTGGACTTCA (sugars k3 d10 k3, PS), in the data set with HSD17B13 (1 µM), the target mRNA inhibition turned out to be 51%. For TTCCGTCTCACAATCT (sugars k3 d10 k3, PS), the target mRNA inhibition is 10% in the data set with HSD17B13 (0.02 µM); 13% in the data set with HSD17B13 (0.078 µM); 49% with HSD17B13 (0.313 µM); 79% in the data set with HSD17B13 (1 µM); 83% with HSD17B13 (1.25 µM); 80% with HSD17B13 (5 µM). Consider TTCTAGGTCAGTAGAG (sugars k3 d10 k3, PS), for which the target mRNA inhibition with HSD17B13 (1 µM) amounted to 58%. On the same count and under the same terms, next, TTCTATTAGTTGGCCT (sugars k3 d10 k3, PS): 28%; TTCTCTTGGGTCCATT (sugars k3 d10 k3, PS): 44%.

As to TTCTGATGTCAGACCT (sugars k3 d10 k3, PS), in the data set with HSD17B13 (1 µM), the target mRNA inhibition came to 42%. In the case of “TTCTGTGGCATGGCTA (sugars k3 d1 m1 d8 k3, PS)”, the target mRNA inhibition with HSD17B13 (1 µM) was 65%. The same measure, in the same setting: the same measure for “TTCTGTGGCATGGCTA (sugars k3 d9 k3 e1, PS)”: 59%.

The values above are taken from the OligoGym collection.
